# Experimental data taken from US20250180567A1, “METHOD FOR MEASURING GL[…] ANTIGEN PROTEIN OF HBV” (RCMG Inc., priority 2021, published 2025).
# How the values were obtained:
# [1] = tested on: glycosylated recombinant HBs antigen protein; test: sandwich ELISA of immobilized HBs antibody (HBsAgGi) and biotinylated lectins; assay type: binding, hepatitis B virus; details: FIG. 1; for detection of N-glycosylated S-HBs as a specific positive signal (ELISA absorbance): lectin-biotin 1 μg/mL, absorbance at 450 nm
# Procedure: A purified antibody against HBs antigen protein (HBsAgGi) was immobilized on a plate, and a sandwich ELISA system was constructed to examine the optimal lectin to be used for detecting the capturedHBs antigen.
# 1) HBsAgGi (5 μg/mL) diluted with BSA (5 μg/mL)/PBS was added to a Nunc Immobilizer Amino Plate at a volume of 0.1 mL per well, and the plate was shaken at room temperature for 4 hours to immobilize the antibody. After washing twice with PBS-T, 0.3 mL of TBS was added per well and the plate was allowed to stand overnight at 4° C. for blocking. 2) After washing with PBS-T, glycosylated recombinant HBs antigen protein was diluted to 400 ng/ml with Sample dilution buffer (3% BSA/TBS-T), 0.1 mL thereof was added per well, and the plate was shaken at room temperature for 2.5 hours to be captured the antigen on the antibody solid-phased plate. In order to confirm the effect of the serum, recombinant HBs antigen to which 5% Normal human serum (NHS) was added was also treated in the same manner. 3) After washing the wells four times with PBS-T, the wells were reacted with the following lectins diluted with PBS-T at room temperature for 2 hours by shaking.
# Jacalin-biotin (1 μg/mL), MAL II-biotin (1 μg/mL), RCA120-biotin (1 μg/mL), SNA-biotin (1 μg/mL), SSA-biotin (1 μg/mL), WGA-biotin (1 μg/mL) 4) After washing four times with PBS-T, the wells were reacted with Peroxidase-conjugated Streptavidin (1/20,000 dilution) or SSA-HRP (2 μg/mL) diluted with PBS-T at room temperature for 1 hour by shaking.
# 5) After washing the wells four times with PBS-T, 0.1 mL of 1Step Ultra TMB-ELISA was added per well and allowed to react for 5 min, then 50 μL of 1 mol/L sulfuric acid was added to stop the reaction. After the reaction was stopped, the absorbance at 450 nm was immediately measured by a plate reader.
# [2] = tested on: glycosylated S-HBs; test: lectin-antibody combination ELISA using sera from chronic hepatitis B patients; assay type: binding, hepatitis B virus; details: actual sera from chronic hepatitis B patients; lectin combined with S-HBs antibody
# Procedure: This finding means that the glycosylated chains attached to S-HBs bind to WGA, which is completely unexpected.
# Sera from untreated (no treatment history with nucleic acid analogs) chronic hepatitis B patients (HBs antigen positivity persisting for 6 months or more) (n=4) were used before (0) weeks) and 48 weeks after nucleic acid analog treatment. 1) HBsAg antibody (Hyb-824, 5 μg/mL) diluted with BSA (5 μg/mL)/PBS was added to a Nunc Immobilizer Amino Plate in an amount of 0.1 mL per well, and the plate was shaken at room temperature for 2 hours to immobilize the antibody. After washing twice with PBS-T, 0.3 mL of TBS was added per well and the wells were allowed to stand at 4° C. overnight for blocking. 2) After washing the wells with PBS-T, patient samples (before treatment and 48 weeks after treatment) were diluted 1/20 and 1/100 with Sample dilution buffer (3% BSA/TBS-T), and 0.1 mL was added per well, and the plate was shaken at room temperature for 1.5 hours to capture the antigen onto the antibody-immobilized plate. […] After the reaction was stopped, the absorbance at 450 nm was immediately measured by a plate reader.
Substance,detection of N-glycosylated S-HBs as a specific positive signal (ELISA absorbance) [1],specificity of detection of glycosylated S-HBs in patient sera [2],effect of NHS added to the sample on lectin detection ([1]; 5% Normal human serum (NHS) added to recombinant HBs antigen),reaction of the lectin with the solid-phased antibody ([1]; antibody HBsAgGi immobilized on plate)
Salvia sclarea agglutinin [SSA lectin],could not detect,unexpectedly low,–,–
wheat germ agglutinin [WGA lectin],very clear detection,could specifically detect,not affected,did not react
